Test results published in patent US7572770B2, “Use of an interleukin 1 receptor antagonist and/or pyrrolidinedithiocarbamate for the treatment or prophylaxis of type 2 diabetes” (University of Zurich, priority 2002, dated 2009).

How the values were obtained:
human islets β-cells = assay: β-cell apoptosis (TUNEL, caspase 3 activation) in human islets, leptin/siRNA study; format: cell-based; details: for cleaved caspase 3 level: leptin
Procedure: (§1) Islet isolation and cell culture. Islets were isolated from pancreases of ten organ donors at the Department of Surgery, University of Geneva Medical Center, as described (32-34). The islet purity was >95%, as judged by dithizone staining (if this degree of purity was not primarily achieved by routine isolation, islets were handpicked). […] For long-term in vitro studies, the islets were cultured on extracellular matrix-coated plates derived from bovine corneal endothelial cells (Novamed Ltd., Jerusalem, Israel), allowing the cells to attach to the dishes and spread, preserving their functional integrity (7;35). Islets were cultured in CMRL 1066 medium containing 100 U/ml penicillin, 100 μg/ml streptomycin and 10% fetal calf serum (Invitrogen Corporation, Paisley, U.K.), hereafter referred to as culture medium. Two days after plating, when most islets were attached and began to flatten, the medium was changed to culture medium containing 5.5, 11.1 or 33.3 mM glucose. In some experiments, islets were additionally cultured with 5, 10 or 500 nM rh leptin (PeproTech, London, UK), 500 ng/ml rh IL-1Ra (R&D Systems Inc., Minneapolis, Minn.) or 50 nM small interfering RNA (siRNA) as described below.
(§2) RNA interference. RNAs of 21 nucleotides, designed to target human IL-1Ra (5′AUCUGCAGAGGCCUCCGCAtt3′/5′UGCGGAGGCCUCUGCAGAUtt3′) and scrambled siRNA were synthesized by Ambion (Austin, Tex.). siRNAs were transfected using SiPortAmine™ according to the manufacturer's instructions (Ambion).
Western blot analysis. Human islets were maintained in culture medium in nonadherent plastic dishes. One day after isolation, the medium was changed and groups of 200 islets were incubated in culture medium containing 5.5 glucose with or without 10 or 500 nM leptin or 50 nM siRNA. At the end of the incubations, islets were washed in PBS, suspended in 40 μl sample buffer containing 125 mM Tris-HCl (pH 6.8), 4% SDS, 10% glycerol, 0.3% bromphenol blue, 1.8% β-mercaptoethanol and boiled for 5 min. Equivalent amounts of each treatment group were run on 15% SDS polyacrylamide gels. Proteins were electrically transferred to nitrocellulose filters and incubated with biotinylated goat anti-IL-1Ra, mouse anti-caspase 3 (which binds to both, procaspase-3 and activated caspase-3; Pharmingen, San Diego, Calif.), or mouse anti-actin (C-2; Santa Cruz Biotechnology Inc., Santa Cruz, Calif.) antibodies, followed by incubation with horseradish-peroxidase-linked anti-mouse (Santa Cruz Biotechnology Inc.) or streptavidin (Jackson). The emitted light was captured on X-ray film after adding Lumi-Light Western Blotting Substrate (Roche, Basel, Switzerland). As a marker, Kaleidoscope Prestained Standards (Bio Rad, Laboratories inc., Hercules, Calif.) was run in parallel. Between incubations, nitrocellulose membranes were stripped for 30 min at 50° C. in 40 ml of a solution containing 280 μl β-mercaptoethanol, 5 ml 0.5 M Tris-HCl (pH 6.8) and 10% SDS, and then washed for 1 h in Tris-buffered saline containing 0.10/0 Tween-20.
β-cell apoptosis. The free 3′-OH strand breaks resulting from DNA degradation were detected using the terminal deoxynucleotidyl transferase-mediated dUTP nick-end labeling (TUNEL) technique as described in detail (70;76;77). Thereafter, islets were incubated with guinea pig anti-insulin antibody as above, followed by detection using the streptavidin-biotin-peroxidase complex (Zymed Laboratories Inc., South San Francisco, Calif., USA). In parallel to the TUNEL reaction, apoptosis was confirmed by detection of caspase 3 activation as described above (Western blot analysis).

type II IL-1R = biological target: T1, type II IL-1R (Homo sapiens, UniProt P27930); details: read-out: Kd, binding to type II IL-1R; cited from earlier work
T1 sequence (P27930 14-398): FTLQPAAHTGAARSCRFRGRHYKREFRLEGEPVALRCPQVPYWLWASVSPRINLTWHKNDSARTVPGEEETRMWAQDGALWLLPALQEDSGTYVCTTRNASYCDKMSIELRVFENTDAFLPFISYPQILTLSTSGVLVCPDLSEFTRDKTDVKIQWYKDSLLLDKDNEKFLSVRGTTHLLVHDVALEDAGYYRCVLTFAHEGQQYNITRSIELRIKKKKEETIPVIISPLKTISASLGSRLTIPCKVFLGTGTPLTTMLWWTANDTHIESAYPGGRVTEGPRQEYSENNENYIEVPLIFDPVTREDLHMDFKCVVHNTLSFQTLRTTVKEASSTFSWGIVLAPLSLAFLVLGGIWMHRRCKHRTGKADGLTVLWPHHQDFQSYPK

human islets = assay: Insulin release and content of human islets, leptin/siRNA study; format: cell-based
Procedure: as §1, §2
Insulin release and content. To determine acute insulin release in response to glucose stimulation, islets were washed in Kreb's ringer bicarbonate buffer (KRB-Hepes, pH 7.4: 4.8 mM KCl, 134 mM NaCl, 5 mM NaHCO3, 1.2 mM MgSO4, 1.2 mM KH2PO4, 1 mM CaCl2, 0.5% BSA, 10 mM HEPES) containing 3.3 mM glucose and pre-incubated for 30 min in the same buffer. The KRB was then discarded and replaced by fresh buffer containing 3.3 mM glucose for 1 h for basal secretion, followed by an additional 1 h of incubation in KRB containing 16.7 mM glucose. Supernatants were collected and frozen for insulin assays. Thereafter, islets were washed with PBS and extracted with 0.18 N HCl in 70% ethanol for 24 h at 4° C. The acid-ethanol extracts were collected for determination of insulin content. Insulin was determined by a human insulin RIA kit (CIS bio international, Gif-Sur-Yvette, France).

[1] = leptin plus exogenous rh IL-1Ra 500 ng/ml
[2] = plus 500 ng/ml exogenous rhIL-1Ra

Row | Substance | leptin-induced β-cell apoptosis (human islets β-cells; [1]) | β-cell apoptosis induced by 33.3 mM glucose alone (human islets β-cells; [2]) | β-cell apoptosis induced by 33.3 mM glucose and siIL-1Ra (human islets β-cells; [2]) | siIL-1Ra-induced DNA fragmentation (human islets β-cells; siIL-1Ra plus 500 ng/ml exogenous rhIL-1Ra) | Kd (type II IL-1R) | β-cell function and insulin content (human islets; [1]) | loss of acute glucose-stimulated insulin release by high glucose and/or siIL-1Ra (human islets; plus exogenous rh IL-1Ra) | insulin content (human islets; siIL-1Ra and/or high glucose plus rh IL-1Ra) | glucose stimulation of insulin release (human islets; siIL-1Ra at 5.5 mM glucose, co-incubation with exogenous rh IL-1Ra) | number of TUNEL-positive β-cells (human islets β-cells; 10 nM leptin, 4 days) | 33.3 mM glucose-induced apoptosis (human islets β-cells; leptin plus 33.3 mM glucose, 4 days) | cleaved caspase 3 level (human islets β-cells; 15 hours) | cleaved caspase 3 level (human islets β-cells; 48 hours) | decrease of chronic insulin secretion during the culture period (human islets; leptin, 4 days) | glucose-stimulated insulin secretion (human islets; leptin, 4 days, 5.5 mM glucose) | insulin content (human islets; leptin, 4 days, 5.5 mM glucose)
1 | Interleukin 1 receptor antagonist [IL-1Ra] | prevented leptin-induced β-cell apoptosis | protected the β-cells from apoptosis | partially | prevented the effect of siIL-1Ra on DNA fragmentation | 7 nM | restored β-cell function and insulin content | partially prevented those effects | partially restored | restored glucose stimulation | – | – | – | – | – | – | –
2 | leptin: rh leptin (PeproTech); protein encoded by the ob gene | – | – | – | – | – | – | – | – | – | increased the number of TUNEL-positive β-cells | enhanced 33.3 mM glucose-induced apoptosis | did not change baseline cleaved caspase 3 level | an increase became apparent | 41.65% | impaired glucose-stimulated insulin secretion | decreased insulin content
